Experimental data from ChEMBL document CHEMBL1154415, “Population pharmacokinetics and pharmacodynamics of continuous versus short-term infusion of imipenem-cilastatin in critically ill patients in a randomized, controlled trial” (Antimicrob Agents Chemother, 2007).

Assays:
Homo sapiens = organism: Homo sapiens; test: Toxicity in nosocomial pneumonia patient assessed as induction of seizures in presence of cilastin; type: organism-based; conditions: in vivo
[1] = Total clearance in nosocomial pneumonia patient at 1 g administered every 8 hrs for 3 days as shot-term iv infusion for 40 mins or at a loading dose of 1 g and maintenance dose of 2 g administered daily for 3 days as continuous iv infusion presence of cilastatin maintenance dose administered as continuous fusion at 8 hrs interval over 72 hrs in presence of cilastatin; type: ADME, organism-based; conditions: human, in vivo
[2] = Plasma concentration in nosocomial pneumonia patient at loading dose of 1 g and maintenance dose of 2 g administered daily for 3 days as continuous infusion measured after 72 hrs in presence of cilastatin; type: ADME, organism-based; conditions: human, iv
Serum = test: Protein binding in human serum by ultrafiltration technique in presence of cilastatin; type: ADME, cell-free

clearance [1]: 205 mL/min
concentration at 72 h [2]: 8650 ng/mL
Activity (Serum): 20%
Compound: C[C@@H](O)[C@H]1C(=O)N2C(C(=O)O)=C(SCCN=CN)C[C@H]12 [IMIPENEM ANHYDROUS]
Activity (Homo sapiens): Non-toxic
